In patent US7074789B2, “Kinase inhibitors” (Amgen Inc., priority 1999, dated 2006) one finds IC50 data, which are given here for 14 compounds.

pIC50: −log10 of the molar value. Several values for one entry are separate records, joined by “and”; a condition that tells them apart may be missing. Equal entries are not always repeated.

Assay type in all cases: biochemical
Assay [1] has as its target T1, Lck (Homo sapiens, UniProt P06239).
T1 construct: Kinases are expressed as either kinase domains or full length constructs; made in house
Briefly: Kinase inhibition assay (33P transfer), Lck. Particulars: Table 3, class symbols; read-out: Lck-1. The procedure, abridged: (§1)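 Recombinant kinase-domain or full-length fusion proteins (GST or His tag) served as enzyme. Substrate poly(Glu,Tyr) 4:1 or poly(Arg,Ser) 3:1 was bound to the plate; transferred 33P was read by liquid scintillation following acid washing.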

In assay [2] the target is T2, Zap-70 (Homo sapiens, UniProt P43403).
T2 construct: Kinases are expressed as either kinase domains or full length constructs; made in house
T2 sequence (P43403 1-619): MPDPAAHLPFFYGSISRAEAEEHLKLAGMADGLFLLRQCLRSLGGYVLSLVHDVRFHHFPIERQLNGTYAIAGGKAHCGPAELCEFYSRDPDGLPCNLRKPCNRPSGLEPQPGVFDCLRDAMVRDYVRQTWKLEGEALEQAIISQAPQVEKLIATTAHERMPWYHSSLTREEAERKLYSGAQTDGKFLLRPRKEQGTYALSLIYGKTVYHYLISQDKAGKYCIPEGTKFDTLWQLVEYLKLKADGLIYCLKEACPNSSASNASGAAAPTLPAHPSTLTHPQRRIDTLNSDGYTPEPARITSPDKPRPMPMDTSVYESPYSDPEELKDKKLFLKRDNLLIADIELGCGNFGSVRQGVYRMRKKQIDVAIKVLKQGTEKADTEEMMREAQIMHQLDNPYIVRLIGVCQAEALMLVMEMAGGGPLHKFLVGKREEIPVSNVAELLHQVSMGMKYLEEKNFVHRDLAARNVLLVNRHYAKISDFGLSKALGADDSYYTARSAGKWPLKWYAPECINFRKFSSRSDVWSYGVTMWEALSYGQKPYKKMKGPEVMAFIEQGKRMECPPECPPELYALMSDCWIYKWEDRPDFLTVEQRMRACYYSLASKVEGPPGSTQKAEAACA
Description: Kinase inhibition assay (33P transfer), Zap-70. Particulars: Table 3, class symbols; read-out: Zap-1. The procedure, abridged:
as §1

Assay [3] deals with T3, Itk (Homo sapiens, UniProt Q08881).
T3 construct: Kinases are expressed as either kinase domains or full length constructs; made in house
T3 sequence (Q08881 1-620): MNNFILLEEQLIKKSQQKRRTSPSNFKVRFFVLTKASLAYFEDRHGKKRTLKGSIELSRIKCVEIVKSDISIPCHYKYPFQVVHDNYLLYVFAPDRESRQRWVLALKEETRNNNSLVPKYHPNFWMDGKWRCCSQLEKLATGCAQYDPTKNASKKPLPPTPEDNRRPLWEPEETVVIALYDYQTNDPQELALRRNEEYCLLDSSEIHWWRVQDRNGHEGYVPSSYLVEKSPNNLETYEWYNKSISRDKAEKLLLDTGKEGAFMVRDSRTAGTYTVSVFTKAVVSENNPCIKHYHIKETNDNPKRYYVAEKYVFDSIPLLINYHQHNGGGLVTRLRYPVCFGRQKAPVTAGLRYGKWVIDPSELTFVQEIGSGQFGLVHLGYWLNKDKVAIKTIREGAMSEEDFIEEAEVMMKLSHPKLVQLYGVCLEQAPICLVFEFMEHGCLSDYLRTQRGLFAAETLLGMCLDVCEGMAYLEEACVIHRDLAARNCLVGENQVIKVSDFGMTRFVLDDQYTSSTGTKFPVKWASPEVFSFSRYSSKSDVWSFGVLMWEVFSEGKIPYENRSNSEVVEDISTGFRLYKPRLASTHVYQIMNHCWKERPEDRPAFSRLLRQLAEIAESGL
Description: Kinase inhibition assay (33P transfer), Itk. Particulars: Table 3, class symbols; read-out: Itk-1. The procedure, abridged: (§2)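 Read-out: scintillation counts of 33P moved from ATP onto synthetic peptide polymer coated on the well surface, after washing with 0.5% phosphoric acid. Enzymes were tagged (GST or polyHistidine) and came from bacterial or insect-cell expression. IC50 marks 50% loss of incorporated label.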

Assay [4] deals with T4, EGFR (Homo sapiens, UniProt P00533).
T4 construct: Kinases are expressed as either kinase domains or full length constructs; made in house
Briefly: Kinase inhibition assay (33P transfer), EGFR. Particulars: Table 2, class symbols A-E; read-out: EGFR-1. Put shortly: as §2

Assay [5] deals with T5, ErbB2 (Homo sapiens, UniProt P04626).
T5 construct: Kinases are expressed as either kinase domains or full length constructs; made in house
Briefly: Kinase inhibition assay (33P transfer), ErbB2. Particulars: read-out: ErbB2-2. The procedure, abridged:
as §2

The target in assay [6] is T6, Kdr (Homo sapiens, UniProt P35968).
T6 construct: Kinases are expressed as either kinase domains or full length constructs; made in house
Briefly: Kinase inhibition assay (33P transfer), Kdr. Particulars: Table 3, class symbols; read-out: KDR-1. The procedure, abridged:
as §1

In assay [7] the target is T7, c-Met (Homo sapiens, UniProt P08581).
T7 construct: Kinases are expressed as either kinase domains or full length constructs; made in house
Briefly: Kinase inhibition assay (33P transfer), c-Met. Particulars: Table 2, class symbols A-E; read-out: Met-1. The procedure, abridged:
as §2

Assay [8] has as its target T8, AKT (Homo sapiens, UniProt Q9Y243).
T8 construct: Kinases are expressed as either kinase domains or full length constructs; made in house
Description: Kinase inhibition assay (33P transfer), AKT. Particulars: Table 2, class symbols A-E; read-out: AKT3-1. Put shortly:
as §1

Assay [9] addresses T9, IGFR-1 (Homo sapiens, UniProt P08069).
T9 construct: Kinases are expressed as either kinase domains or full length constructs; made in house
Description: Kinase inhibition assay (33P transfer), IGFR-1. Particulars: Table 2, class symbols A-E.

Assay [10] has as its target T10, PDGFRB (Homo sapiens, UniProt P09619).
T10 construct: Kinases are expressed as either kinase domains or full length constructs; made in house
Briefly: Kinase inhibition assay (33P transfer), PDGFRB. Particulars: read-out: PDGFRB-1.

T4 sequence (P00533 25-1210, species assumed): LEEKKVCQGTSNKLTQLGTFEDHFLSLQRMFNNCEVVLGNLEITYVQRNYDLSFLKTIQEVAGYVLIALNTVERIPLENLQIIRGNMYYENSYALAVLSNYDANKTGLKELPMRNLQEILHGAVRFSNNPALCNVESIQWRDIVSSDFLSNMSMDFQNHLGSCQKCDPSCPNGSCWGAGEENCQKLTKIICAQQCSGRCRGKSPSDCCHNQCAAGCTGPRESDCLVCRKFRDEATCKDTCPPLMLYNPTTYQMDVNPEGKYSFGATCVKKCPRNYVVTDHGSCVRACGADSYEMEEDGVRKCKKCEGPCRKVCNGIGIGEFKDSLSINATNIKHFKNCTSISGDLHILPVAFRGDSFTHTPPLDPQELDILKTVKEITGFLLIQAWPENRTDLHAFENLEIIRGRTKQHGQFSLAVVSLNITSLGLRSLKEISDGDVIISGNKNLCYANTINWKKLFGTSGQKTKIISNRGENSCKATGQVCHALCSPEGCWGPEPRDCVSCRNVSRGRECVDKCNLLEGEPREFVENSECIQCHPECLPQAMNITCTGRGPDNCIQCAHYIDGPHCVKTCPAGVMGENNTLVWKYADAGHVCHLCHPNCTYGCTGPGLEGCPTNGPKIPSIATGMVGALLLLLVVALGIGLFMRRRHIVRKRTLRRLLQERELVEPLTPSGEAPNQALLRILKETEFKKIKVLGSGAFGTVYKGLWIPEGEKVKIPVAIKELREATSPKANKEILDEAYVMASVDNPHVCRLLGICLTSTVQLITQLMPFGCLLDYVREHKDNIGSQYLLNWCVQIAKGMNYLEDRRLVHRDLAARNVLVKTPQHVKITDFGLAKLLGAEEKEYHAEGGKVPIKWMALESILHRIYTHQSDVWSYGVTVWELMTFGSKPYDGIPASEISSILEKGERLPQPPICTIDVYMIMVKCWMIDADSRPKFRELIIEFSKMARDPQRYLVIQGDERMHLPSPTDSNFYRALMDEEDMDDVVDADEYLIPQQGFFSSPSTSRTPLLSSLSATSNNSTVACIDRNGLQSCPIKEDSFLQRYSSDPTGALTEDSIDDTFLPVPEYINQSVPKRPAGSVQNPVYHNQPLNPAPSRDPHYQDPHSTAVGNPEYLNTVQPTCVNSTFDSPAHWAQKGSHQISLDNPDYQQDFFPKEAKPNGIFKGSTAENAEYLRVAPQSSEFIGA
T10 sequence (P09619 33-1106, species assumed): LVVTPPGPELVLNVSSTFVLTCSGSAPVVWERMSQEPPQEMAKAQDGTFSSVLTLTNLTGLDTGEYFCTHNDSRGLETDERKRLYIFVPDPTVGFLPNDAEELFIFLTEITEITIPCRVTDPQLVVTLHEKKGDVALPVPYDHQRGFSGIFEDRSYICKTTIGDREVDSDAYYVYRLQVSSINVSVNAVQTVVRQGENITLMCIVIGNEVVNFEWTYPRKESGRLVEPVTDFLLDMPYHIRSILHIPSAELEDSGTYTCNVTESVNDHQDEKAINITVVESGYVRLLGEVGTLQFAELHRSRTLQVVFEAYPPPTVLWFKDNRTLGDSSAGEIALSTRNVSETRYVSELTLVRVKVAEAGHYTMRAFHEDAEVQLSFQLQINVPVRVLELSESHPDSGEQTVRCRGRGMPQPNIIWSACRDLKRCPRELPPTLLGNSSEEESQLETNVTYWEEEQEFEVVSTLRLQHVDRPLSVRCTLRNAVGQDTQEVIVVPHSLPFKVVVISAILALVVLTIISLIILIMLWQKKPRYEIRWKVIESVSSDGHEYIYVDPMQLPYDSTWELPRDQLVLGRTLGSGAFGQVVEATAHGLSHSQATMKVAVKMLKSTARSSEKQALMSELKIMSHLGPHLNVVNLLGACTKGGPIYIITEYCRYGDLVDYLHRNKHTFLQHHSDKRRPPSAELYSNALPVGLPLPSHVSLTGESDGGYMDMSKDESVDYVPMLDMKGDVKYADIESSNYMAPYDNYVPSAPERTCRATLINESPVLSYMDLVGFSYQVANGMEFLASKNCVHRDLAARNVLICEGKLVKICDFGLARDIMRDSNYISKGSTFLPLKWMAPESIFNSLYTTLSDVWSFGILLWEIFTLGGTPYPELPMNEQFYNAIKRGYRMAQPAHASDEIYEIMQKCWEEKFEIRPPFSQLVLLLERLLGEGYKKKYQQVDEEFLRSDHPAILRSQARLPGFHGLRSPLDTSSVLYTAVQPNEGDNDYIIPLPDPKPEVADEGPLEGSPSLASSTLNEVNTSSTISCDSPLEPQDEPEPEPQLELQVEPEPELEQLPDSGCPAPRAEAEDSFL
T6 sequence (P35968 20-1356, species assumed): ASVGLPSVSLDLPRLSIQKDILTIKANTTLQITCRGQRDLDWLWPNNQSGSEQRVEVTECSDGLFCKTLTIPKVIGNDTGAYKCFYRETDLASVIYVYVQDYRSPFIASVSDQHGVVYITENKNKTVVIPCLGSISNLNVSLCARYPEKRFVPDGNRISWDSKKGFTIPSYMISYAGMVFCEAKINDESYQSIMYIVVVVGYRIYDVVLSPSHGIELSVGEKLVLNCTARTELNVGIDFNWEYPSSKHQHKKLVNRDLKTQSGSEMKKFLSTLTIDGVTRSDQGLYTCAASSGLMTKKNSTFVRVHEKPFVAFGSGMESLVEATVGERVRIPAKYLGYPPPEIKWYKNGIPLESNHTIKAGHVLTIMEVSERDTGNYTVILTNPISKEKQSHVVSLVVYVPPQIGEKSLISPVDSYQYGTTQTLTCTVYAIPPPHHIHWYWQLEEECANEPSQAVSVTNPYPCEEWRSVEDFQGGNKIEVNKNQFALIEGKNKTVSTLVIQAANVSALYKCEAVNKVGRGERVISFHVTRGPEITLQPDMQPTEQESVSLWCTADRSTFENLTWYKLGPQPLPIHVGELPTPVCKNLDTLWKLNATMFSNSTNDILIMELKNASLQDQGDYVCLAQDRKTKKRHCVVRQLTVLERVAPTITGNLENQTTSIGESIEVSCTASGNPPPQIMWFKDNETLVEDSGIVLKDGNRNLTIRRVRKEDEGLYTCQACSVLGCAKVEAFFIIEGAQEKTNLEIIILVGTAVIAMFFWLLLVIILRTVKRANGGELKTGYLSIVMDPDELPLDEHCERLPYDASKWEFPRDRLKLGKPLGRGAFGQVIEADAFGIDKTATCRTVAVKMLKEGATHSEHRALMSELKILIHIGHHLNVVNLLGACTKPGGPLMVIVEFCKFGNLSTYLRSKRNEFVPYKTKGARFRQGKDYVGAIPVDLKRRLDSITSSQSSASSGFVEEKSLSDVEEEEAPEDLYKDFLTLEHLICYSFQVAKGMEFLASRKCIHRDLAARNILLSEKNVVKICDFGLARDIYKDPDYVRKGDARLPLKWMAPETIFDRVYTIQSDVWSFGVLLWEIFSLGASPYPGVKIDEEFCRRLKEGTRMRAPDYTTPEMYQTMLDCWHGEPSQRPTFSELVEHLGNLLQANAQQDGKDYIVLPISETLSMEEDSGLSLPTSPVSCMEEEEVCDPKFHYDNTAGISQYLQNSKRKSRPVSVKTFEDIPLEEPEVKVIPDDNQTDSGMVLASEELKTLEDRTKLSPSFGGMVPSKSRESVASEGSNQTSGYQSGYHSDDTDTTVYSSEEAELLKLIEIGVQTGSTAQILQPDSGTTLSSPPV
T7 sequence (P08581 25-1390): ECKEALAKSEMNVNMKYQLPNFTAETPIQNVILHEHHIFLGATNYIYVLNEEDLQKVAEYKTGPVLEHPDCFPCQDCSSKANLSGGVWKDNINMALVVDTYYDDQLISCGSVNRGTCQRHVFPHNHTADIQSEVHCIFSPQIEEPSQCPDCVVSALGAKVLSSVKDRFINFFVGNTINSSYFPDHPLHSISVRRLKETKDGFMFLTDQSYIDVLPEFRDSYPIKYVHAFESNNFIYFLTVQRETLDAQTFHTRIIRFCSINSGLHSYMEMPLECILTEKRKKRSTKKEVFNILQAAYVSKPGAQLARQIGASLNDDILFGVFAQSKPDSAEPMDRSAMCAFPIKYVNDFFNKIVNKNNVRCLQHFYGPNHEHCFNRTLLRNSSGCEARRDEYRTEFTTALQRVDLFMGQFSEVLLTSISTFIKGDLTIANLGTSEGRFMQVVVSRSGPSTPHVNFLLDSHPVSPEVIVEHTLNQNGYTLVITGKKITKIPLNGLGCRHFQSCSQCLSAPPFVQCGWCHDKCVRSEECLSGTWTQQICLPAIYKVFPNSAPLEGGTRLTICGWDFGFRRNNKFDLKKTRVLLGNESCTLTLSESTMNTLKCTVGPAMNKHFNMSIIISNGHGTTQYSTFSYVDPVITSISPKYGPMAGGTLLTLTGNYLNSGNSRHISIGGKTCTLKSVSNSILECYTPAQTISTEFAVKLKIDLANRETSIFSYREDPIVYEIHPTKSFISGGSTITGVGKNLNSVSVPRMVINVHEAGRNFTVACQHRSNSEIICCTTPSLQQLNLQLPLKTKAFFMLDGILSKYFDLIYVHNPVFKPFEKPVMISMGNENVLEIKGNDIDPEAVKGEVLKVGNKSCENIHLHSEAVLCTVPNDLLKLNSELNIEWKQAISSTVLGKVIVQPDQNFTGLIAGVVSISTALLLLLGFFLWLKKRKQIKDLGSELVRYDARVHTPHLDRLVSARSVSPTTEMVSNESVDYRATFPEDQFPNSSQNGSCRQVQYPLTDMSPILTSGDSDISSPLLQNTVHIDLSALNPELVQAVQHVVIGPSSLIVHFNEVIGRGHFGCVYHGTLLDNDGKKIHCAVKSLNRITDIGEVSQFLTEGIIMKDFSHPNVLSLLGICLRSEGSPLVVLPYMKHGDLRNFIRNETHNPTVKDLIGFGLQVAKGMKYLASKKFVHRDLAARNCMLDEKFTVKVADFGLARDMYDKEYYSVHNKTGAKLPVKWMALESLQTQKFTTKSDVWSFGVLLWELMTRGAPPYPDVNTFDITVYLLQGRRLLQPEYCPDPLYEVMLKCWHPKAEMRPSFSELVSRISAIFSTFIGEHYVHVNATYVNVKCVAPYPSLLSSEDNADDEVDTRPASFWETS

As for `OCc1cccc(Nc2ncnc(-c3cccnc3NCc3ccccc3)n2)c1` [Compound 1103], the pIC50 in assay [1] was 5.20 to 5.98; in [2], 4.93 to 5.04; in assay [3], less than 4.93; in assay [4], 5.20 to 5.98; in [5] it was 4.93 to 5.04; in assay [6], greater than 5.98. Also, the pIC50 was less than 4.93 in assay [7], 4.93 to 5.04 in [8], less than 4.93 in assay [9] and greater than 5.98 in [10].
For the compound `COc1cc(Nc2ncnc(-c3cccnc3NCC(C)c3ccccc3)n2)cc(OC)c1OC` (centres unmarked) [Compound 890], the pIC50 in [1] was less than 5.02; in assay [2], less than 5.02; in [3], less than 5.02; in assay [4], less than 5.02; in [5], less than 5.02; in assay [6], 5.02 to 5.13. In addition, the pIC50 is less than 5.02 in assay [7], less than 5.02 in assay [8], less than 5.02 in assay [9] and 5.29 to 6.07 in [10].
Regarding `COc1ccc(Nc2ncnc(Nc3ccc4c(cnn4Cc4ccccc4)c3)n2)cc1` [Compound 905], the pIC50 was less than 4.97 in [1]; less than 4.97 in assay [2]; 5.25 to 6.02 in assay [3]; greater than 6.02 in [4]; 5.25 to 6.02 in assay [5]; 5.25 to 6.02 in assay [6]. The pIC50 in [7] was 5.25 to 6.02; in assay [8], less than 4.97; in assay [9] it was less than 4.97; in assay [10], 5.25 to 6.02.
For `COc1cccc(Nc2ncccc2-c2ncnc(Nc3cc(OC)c(OC)c(OC)c3)n2)c1` [Compound 829], the pIC50 in [1] was less than 5.01; in assay [2] it was less than 5.01; in assay [3] it was less than 5.01; in assay [4], 5.01 to 5.12; in assay [5], 5.28 to 6.06; in assay [6], greater than 6.06. The pIC50 in assay [7] was less than 5.01; in assay [8] it was less than 5.01; in assay [9], less than 5.01; in assay [10] it was 5.28 to 6.06.
Take `COc1cc(Nc2ncnc(-c3cccnc3NC3CCc4ccccc43)n2)cc(OC)c1OC` (centres unmarked) [Compound 846]: the pIC50 in assay [1] is 5.29 to 6.07; in assay [2], less than 5.02; in assay [3], less than 5.02; in [4] it was 5.13 to 5.29; in assay [5], 5.13 to 5.29; in assay [6] it was 5.29 to 6.07. Also, the pIC50 in assay [7] is less than 5.02; in assay [8], less than 5.02; in assay [9] it was less than 5.02; in assay [10], 5.29 to 6.07.
`COc1cc(Nc2ncnc(-c3cccnc3Nc3ccc(Oc4ccccc4)cc3)n2)cc(OC)c1OC` [Compound 839]: the pIC50 in assay [1] was less than 5.06; in assay [2], less than 5.06; in assay [3] it was less than 5.06; in assay [4], less than 5.06; in [5] it was 5.34 to 6.12; in assay [6] it was less than 5.06. For the same compound, the pIC50 was less than 5.06 in assay [7], less than 5.06 in [8], less than 5.06 in assay [9] and 5.17 to 5.34 in assay [10].
Turning to `O=C(O)/C=C/c1ccc(Nc2ncnc(Nc3cc(-c4ccco4)[nH]n3)n2)cc1` [Compound 886], the pIC50 in [1] is 5.21 to 5.99; in assay [2], 5.21 to 5.99; in [3], greater than 5.99; in assay [4], greater than 5.99; in assay [5], 5.21 to 5.99; in [6], greater than 5.99. The pIC50 in [7] is greater than 5.99; in assay [8], 5.21 to 5.99; in assay [9], 5.21 to 5.99; in [10], less than 4.94.
Regarding `NC(=O)Cc1cccc(Nc2ncnc(Nc3cccc(Br)c3)n2)c1` [Compound 966], the pIC50 in assay [1] is 5.06 to 5.22; in assay [2], less than 4.95; in assay [3], less than 4.95; in assay [4], greater than 6.00; in assay [5] it was less than 4.95; in [6], 5.22 to 6.00. For the same compound, the pIC50 was less than 4.95 in assay [7], less than 4.95 in assay [8], greater than 6.00 in [9] and greater than 6.00 in assay [10].
As for `c1ccc(CNc2ncccc2-c2ncnc(Nc3ccc(N4CCOCC4)cc3)n2)cc1` [Compound 1105], the pIC50 in assay [1] is less than 4.99; in assay [2], less than 4.99; in assay [3], less than 4.99; in assay [4], less than 4.99; in assay [5], less than 4.99; in [6] it was greater than 6.04. Moreover, the pIC50 in assay [7] was less than 4.99; in [8], less than 4.99; in assay [9], less than 4.99; in assay [10], greater than 6.04.
With `Fc1ccc(CNc2ncccc2-c2ncnc(Nc3cccc(Cn4ccnn4)c3)n2)cc1` [Compound 1102], the pIC50 is less than 5.00 in [1]; 5.00 to 5.11 in [2]; less than 5.00 in [3]; 5.11 to 5.28 in assay [4]; less than 5.00 in [5]; greater than 6.05 in assay [6]. The pIC50 in [7] is less than 5.00; in assay [8], less than 5.00; in [9], less than 5.00; in [10], greater than 6.05.
With `OCc1cccc(Nc2ncnc(-c3cccnc3NCc3ccc(F)cc3)n2)c1` [Compound 1104], the pIC50 is < 4.95 and 5.22 to 6.00 in [1]; less than 4.95 in assay [2]; < 4.95 and 4.95 to 5.06 in [3]; < 4.95 and 5.22 to 6.00 in assay [4]; < 4.95 and 5.22 to 6.00 in assay [5]; greater than 6.00 in assay [6]. Also, the pIC50 in assay [7] is less than 4.95; in assay [8], 4.95 to 5.06 and < 4.95; in assay [9] it was < 4.95 and 4.95 to 5.06; in [10], greater than 6.00.
In the case of `COc1ccc(Nc2ncnc(Nc3ccc4c(c3)CCC4)n2)cc1OC` [Compound 896], the pIC50 is less than 4.91 in assay [1]; less than 4.91 in [2]; 5.02 to 5.18 in [3]; 5.18 to 5.96 in assay [4]; 5.18 to 5.96 in [5]; 5.02 to 5.18 in [6]. The pIC50 in assay [7] was 5.18 to 5.96; in assay [8], 5.02 to 5.18; in assay [9], 5.18 to 5.96; in assay [10] it was greater than 5.96.
For the compound `COc1ccc(CCNc2ncnc(Nc3cc(-c4ccco4)[nH]n3)n2)cc1OC` [Compound 823], the pIC50 is 4.96 to 5.07 in assay [1]; 4.96 to 5.07 in assay [2]; 5.23 to 6.01 in [3]; less than 4.96 in assay [4]; 5.07 to 5.23 in assay [5]; 5.23 to 6.01 in assay [6]. In addition, the pIC50 in [7] was 5.23 to 6.01; in [8], 5.23 to 6.01; in [9] it was 5.07 to 5.23; in assay [10], 5.23 to 6.01.
Consider `COc1ccc(Nc2ncnc(Nc3cccc(C#N)c3)n2)cc1OC` [Compound 897], for which the pIC50 is less than 4.89 in assay [1]; less than 4.89 in assay [2]; 5.00 to 5.16 in [3]; greater than 5.94 in [4]; less than 4.89 in assay [5]; less than 4.89 in assay [6]. Also, the pIC50 in assay [7] is less than 4.89; in assay [8], less than 4.89; in assay [9], less than 4.89; in assay [10], greater than 5.94.
